The values below come from patent US20240257668A1, “3D ARTIFICIAL SKIN MODEL AND METHOD FOR PRODUCING THE SAME” (Korea Advanced Institute of Science and Technology, priority 2023, published 2024).

Test [1] has as its system stromal layer of the basement membrane+stromal layer artificial skin model. The test can be described thus: Inhibition of tissue contraction of basement membrane+stromal layer artificial skin model by blebbistatin. Format: cell-based. As for the experimental part: Additionally, the basement membrane+stromal layer model without epithelial cells (Example 1-4) was produced and incubated for 24 hours under conditions of 37° C. and 5% CO2.
After incubation, each sample was imaged with a confocal fluorescence microscope at a wavelength of 488 nm, and the images were synthesized into two-dimensional images by max intensity projection using the ImageJ imaging program. […] However, it could be seen that, in the sample in which tissue contraction had already occurred, tissue contraction was maintained even after subsequent treatment with blebbistatin.

Test [2] relates to stromal cells (fibroblasts) in the stromal layer. The test is described as follows: Tissue contraction of basement membrane+stromal layer artificial skin model incubated with TGF-β2. The class given is cell-based. The settings on record: 10 ng/ml TGF-β2 added to DMEM + 10% FBS + 1% P/S; 96 hours, 37° C., 5% CO2; model without epithelial cells (FIGS. 5 and 6). As for the experimental part:
In order to form wavy ridges in the stromal layer corresponding to the dermal layer of normal skin tissue, tissue contraction is required at the stromal layer boundary that is in contact with the basement membrane. In order to confirm whether the artificial skin model of the present disclosure can mimic this function, a basement membrane+stromal layer model without epithelial cells (Example 1-4) was produced, incubated under conditions of 37° C. and 5% CO2 for 96 hours. Incubation was performed using DMEM containing 10% FBS (fetal bovine serum) and 1% P/S (penicillin/streptomycin), and 10 ng/ml of TGF-β2 (transforming growth factor-beta 2) was additionally added to the test group. FIGS. 5 and 6, respectively, show the results of imaging the incubated model and the results of quantifying the image size relative to the control strain (0) based on 6 mm. The physical property was measured with Anton Paar MCR 92. […] This is believed to be because TGF-β2 increased contraction by activating stromal cells (fibroblasts) in the stromal layer. Therefore, in the following study, a medium supplemented with 10 ng/ml of TGF-β2 was used.

For the molecule `Cc1ccc2c(c1)C(=O)C1(O)CCN(c3ccccc3)C1=N2` (stereo not drawn) [blebbistatin], the “tissue contraction at the stromal layer boundary” value is reported as “inhibited” in test [1] (10 μM blebbistatin in control medium (with 10 ng/ml TGF-β2) from the beginning, 24 hours (group Bleb; FIG. 7)) and “maintained” in test [1] (12 hours control medium, then 12 hours with 10 μM blebbistatin, tissue contraction already occurred (group Bleb after 12 hours; FIG. 7)).

B1: transforming growth factor-beta 2 (protein, UniProt P61812 303-414, looked up)
Transforming growth factor …: ALDAAYCFRNVQDNCCLRPLYIDFKRDLGWKWIHEPKGYNANFCAGACPYLWSSDTQHSRVLSLYNTINPEASASPCCVSQDLEPLTILYYIGKTPKIEQLSNMIVKSCKCS
Turning to B1, in test [2], the “tissue contraction at the boundary of the stromal layer” value is “well induced”.
